Data taken from ChEMBL document CHEMBL4680271, “COVID-19: Drug Targets and Potential Treatments” (J Med Chem, 2020).

Key:
[1] = Inhibition of SARS-CoV2 3C-like protease expressed in Escherichia coli BL21-Gold (DE3) cells using Dabcyl-KTSAVLQSGFRKM-E(Edans)-NH2 as substrate by FRET-based cleavage assay; design: species or system Severe acute respiratory syndrome coronavirus 2
[2] = Inhibition of SARS-CoV 3C-like protease expressed in African green monkey Vero cells using SAVLQSGFRK as substrate by dual luciferase reporter assay; assay type: cell-based, Severe acute respiratory syndrome-related coronavirus
[3] = Cytotoxicity against African green monkey Vero E6 cells by CCK8 assay; assay type: cell-based, Vero C1008; conditions: chlorocebus sabaeus
[4] = Inhibition of C-terminal 6His-tagged SARS-CoV 3C-like protease expressed in Escherichia coli BL21 (DE3) CodonPlus-RIL using 12-mer fluorogenic peptide Dabcyl-KNSTLQSGLRKE-Edans as substrate incubated for 60 mins by fluorescence method; design: species or system Severe acute respiratory syndrome-related coronavirus
[5] = Inhibition of C-terminal 6His-tagged SARS-CoV papain-like protease expressed in Escherichia coli BL21 (DE3) CodonPlus-RIL using Arg-Leu-Arg-Gly-Gly-AMC as substrate by fluorescence method; design: species or system Severe acute respiratory syndrome-related coronavirus
[6] = Inhibition of SARS-CoV2 3C-like protease expressed in Escherichia coli BL21 (DE3) cells using Mca-AVLQSGFR-K(Dnp)K as substrate by fluorescence method; design: species or system Severe acute respiratory syndrome coronavirus 2
[7] = Inhibition of MERS-CoV 3C-like protease expressed in Escherichia coli BL21 using Dabcyl-KTSAVLQSGFRKME-Edans fluorogenic peptide as substrate by fluorometric assay; design: species or system Middle East respiratory syndrome-related coronavirus
[8] = Inhibition of SARS-CoV 3C-like protease expressed in Escherichia coli BL21 using Dabcyl-KTSAVLQSGFRKME-Edans fluorogenic peptide as substrate by fluorometric assay; design: species or system Severe acute respiratory syndrome-related coronavirus

CC(C)(C)CC(=O)Nc1cccc([C@@H](CC2CC2)C(=O)N[C@@H](CC2CCNC2=O)C(=O)C(=O)NCc2ccccc2)c1O (stereo not given in full)
IC50 [1]: 0.67 µM

COc1ccc(C(=O)/C=C/c2ccc(O)cc2)c(O)c1CC(O)C(C)=O (stereo not given)
IC50 [2]: 7.1 µM

Nc1nc2c(ncn2CCC(CO)CO)c(=O)[nH]1 [PENCICLOVIR]
CC50 [3]: > 400 µM

NC(=O)c1ncn([C@@H]2O[C@H](CO)[C@@H](O)[C@H]2O)n1 [RIBAVIRIN]
CC50 [3]: > 400 µM

O=C(/C=C/CCc1ccc(O)c(O)c1)CCc1ccc(O)c(O)c1 [DEHYDROHIRSUTANONOL]
IC50 [4]: 36.2 µM
IC50 [5]: 4.1 µM

Cn1sc(=O)n(Cc2ccccc2)c1=O
IC50 [6]: 2.5 µM

NC(=O)c1nc(F)c[nH]c1=O
CC50 [3]: > 400 µM

O=C[C@H](CC1CCNC1=O)NC(=O)[C@@H](Cc1ccccc1)NC(=O)/C=C/c1ccc(Cl)cc1F (stereo not given in full)
IC50 [7]: 1.17 µM
IC50 [8]: 0.2 µM
